The values below come from patent US6413537B1, “Nystatin formulation having reduced toxicity” (Wisconsin Alumni Research Foundation, priority 2000, dated 2002).

The nature of data set [1]: Solubility measurement of freeze-dried nystatin formulations (NF) in distilled water. In kind it is physicochemical. The following applies: vortex mixed 5 min, 0.45 μm filtered, absorption at 307 nm. Here is the method: An excess amount of each NF formulation from Example 1 was placed into 0.5 mL of distilled water, and mixed vigorously for 5 min with a vortex mixer. After filtering the slurry with a 0.45 μm syringe filter, the filtrate was diluted with dimethylformamide (DMF) for analysis. The amount of nystatin in each NF composition was calculated by absorption spectroscopy at 307 nm.

The nature of data set [2]: Critical aggregation concentration (CAC) of nystatin by light scattering. The format is physicochemical. As to the method: Nystatin (16 mg) was dissolved into 0.3 mL of dimethylsulfoxide (DMSO) under light protection, and was added into 15 mL of various aqueous Pluronic F127® solutions ranging from 0.1%-2.0%, making a 1100 μM nystatin solution. Each solution was serially diluted with the corresponding Pluronic F127® solution until a 3.8 μM nystatin concentration was obtained. After incubation at 37° C. for 30 min, each solution was subjected to light scattering using fluorimeter with fixed excitation wavelength of 450 nm. Band widths for excitation and emission were set at 3 nm and 1.5 nm, respectively. […] The intersection point of two linear lines was defined as the critical aggregation concentration (CAC) where self-aggregation of nystatin molecules begins, leading to an abrupt increase of intensity of scattered light.

A further data set relates to Saccharomyces cerevisiae. As to the kind of experiment: Minimal fungicidal concentration (MFC). The format is cell-based. The conditions noted are these: 2 hrs contact at 37° C., no colony on YPD agar plate after 24 hr at 30° C. Here is the method: For measurement of minimal fungicidal concentration (MFC), the same procedure as the MIC measurement was employed up to the incubation step. Tubes containing Saccharomyces cerevisiae were placed in an incubator at 37° C. for 2 hrs., so that the cells might be killed. After 2 hrs. contact with the sample, the surviving cells were precipitated on the bottom of the tube by centrifugation (12000 g, 20 sec), and the supernatant decanted. […] All experiments were repeated three times. The MFC for the compositions in accordance with the present invention was determined to be 3 μg/mL.

Data set [3] concerns Saccharomyces cerevisiae, ATCC 4921. Put plainly: Minimal inhibitory concentration (MIC) in YPD broth. In kind it is cell-based. The conditions noted are these: 30° C., 24 hr, full inhibition by optical density at 600 nm. As to the method:
NF samples were dissolved into DMSO and diluted with Bacto® YPD broth medium (10 g of Bacto® YPD in 200 mL of distilled water, and sterilized at 121° C.-124° C.), to give a nystatin level of 8 μg/mL. Nystatin levels were varied by serial dilution with broth medium to a level of 0.1 μg/mL. An aliquot (800 μL) of each nystatin sample was put into a microcentrifuge tube. 50 μL of the inoculum, containing 5×10^3 cfu/mL of Saccharomyces cerevisiae, ATCC 4921, in sterile distilled water, was added to each tube to give a total volume of 850 μL per tube. The tubes were incubated at 30° C. for 24 hr. A solvent control, Pluronic F127® control, and medium control were performed simultaneously to check the growth inhibiting activities of DMSO and Pluronic F127® as well as the sterility of the broth medium. […] The MIC for the nystatin formulations in accordance with the present invention was determined to be 3 μg/mL. The MIC of nystatin alone for Saccharomyces cerevisiae is about 3 μg/mL.

The test system of data set [4] is erythrocytes (red blood cells).
Data set [5] is described as follows: Monomerizing (light scattering) effect of various surfactants on nystatin. The format is physicochemical. The following applies: nystatin kept constant at 200 μM; FIG. 7. As to the method: Nystatin formulations were prepared with various surfactants similar to the method of Example 1. The concentration of drug was kept constant at 200 μM. The intensity of the scattered light was measured using a fluorimeter with a fixed excitation wavelength of […].

Converted amounts (≈) assume the structure as drawn. Like-named read-outs stand apart in the source and are kept apart here.

As for `C[C@@H]1[C@H](O)[C@@H](C)/C=C/C=C/CC/C=C/C=C/C=C/C=C/C(O[C@H]2O[C@H](C)[C@@H](O)[C@H](N)[C@@H]2O)CC2O[C@](O)(CC(O)C(O)CCC(O)CC(O)CC(O)CC(=O)O[C@H]1C)CC(O)C2C(=O)O` (stereo partly shown) [pure Nys, Nystatin], the Solubility in data set [1] amounted to 540 µg/mL (≈ 583 µM); in data set [1] (listed as pure nystatin), 500 µg/mL (≈ 540 µM). The CAC in data set [2] (distilled water alone) came to 52.8 µM; in data set [2] (distilled water containing 0.1% Pluronic F127, 37° C. 30 min), 50.1 µM; in data set [2] (distilled water containing 0.5% Pluronic F127, 37° C. 30 min), 108.0 µM; in data set [2] (distilled water containing 1.0% Pluronic F127, 37° C. 30 min), 134.2 µM; in data set [2] (distilled water containing 1.5% Pluronic F127, 37° C. 30 min) it was 154.3 µM; in data set [2] (distilled water containing 2.0% Pluronic F127, 37° C. 30 min) it was 217.9 µM. The “minimal fungicidal concentration (MFC)” value in the data set with Saccharomyces cerevisiae stood at 12 µg/mL (≈ 13 µM). In addition, the “minimal inhibitory concentration (MIC)” value in data set [3] was “about 3 μg/mL”. Moreover, the “concentration of nystatin causing 50% hemolysis” value in data set [4] (PBS pH 7.0 containing 0.1% Pluronic F127, FIG. 4) is ~120 µg/mL; in data set [4] (PBS pH 7.0 containing 2% Pluronic F127, FIG. 4), ~270 µg/mL; in data set [4] (isotonic PBS, FIG. 3), “about 55 μg/mL”. Moreover, in data set [4] (Table 1, erythrocytes in isotonic PBS, 37° C., 30 min), the “50% hemolysis inducing level of Nys” value was found to be 60 µg/mL.
Take “sorbitan mono-9-octadecanoate [Tween 80®]”: the “surfactant level showing deaggregating activity (decrease of light scattering intensity)” value in data set [5] is recorded as “about 100 μM”. In data set [4], the “concentration of surfactant alone causing 50% hemolysis” value was “less than 50 μg/mL”.

What is called Solubility is the dissolved amount per volume that the medium holds. Read a high Solubility as much dissolved substance.
